Results from patent US8658604B2, “Template-fixed beta-hairpin peptidomimetics with protease inhibitory activity” (Polyphor Ltd, priority 2005, dated 2014).
Read-outs that look alike come from different tables or passages of the source. Where a SMILES comes first, the peptide text is derived from it.

Assays:
[1] = target: Coagulation Factor Xa, from uman plasma (Homo sapiens, UniProt P00742); assay: Enzymatic assay, coagulation factor Xa
[2] = tested on: Tryptase, from human lung; assay: Enzymatic assay, tryptase; conditions: at 100 μM
HELA cells (Acc57) = assay: Cytotoxicity assay (MTT reduction), HELA cells; format: cell-based; conditions: Hela cells
Method in brief: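 HeLa cells were grown for 24 h, then exposed to peptides at 12.5, 25 and 50 μM in triplicate for 48 h at 37 °C. MTT reduction was read at 595 nm and growth % calculated relative to time-zero wells. LC50 interpolated by linear trend at −50% growth, GI50 at 50%.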

[3] = tested on: human red blood cells (hRBC); assay: Hemolysis
Procedure: The peptides were tested for their hemolytic activity against human red blood cells (hRBC). Fresh hRBC were washed three times with phosphate buffered saline (PBS) by centrifugation for 10 min at 2000×g. Peptides at a concentration of 100 μM were incubated with 20% v/v hRBC for 1 hour at 37° C. The final erythrocyte concentration was approximately 0.9×10^9 cells per ml. A value of 0% and, respectively, 100% cell lysis was determined by incubation of the hRBC in the presence of PBS alone and, respectively, 0.1% Triton X-100 in H2O. […] The 100% lysis value (OD540H20) gave an OD540 of approximately 1.3-1.8. Percent hemolysis was calculated as follows: (OD540peptide/OD540H20)×100%.

[4] = target: Urokinase from human urine (Homo sapiens, UniProt P00749); assay: Enzymatic assay, urokinase
Chymase, from human skin = target: T1, Chymase, from human skin (Homo sapiens, UniProt P23946); assay: Enzymatic assay, chymase
T1 sequence (P23946 22-247): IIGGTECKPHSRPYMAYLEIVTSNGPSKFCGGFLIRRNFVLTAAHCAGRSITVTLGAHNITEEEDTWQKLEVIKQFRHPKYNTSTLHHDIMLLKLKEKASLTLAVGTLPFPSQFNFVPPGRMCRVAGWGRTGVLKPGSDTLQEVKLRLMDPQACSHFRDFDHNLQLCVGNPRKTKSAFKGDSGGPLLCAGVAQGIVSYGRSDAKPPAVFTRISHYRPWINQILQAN

[5] = target: T2, CathepsinG, from human neutrophils (Homo sapiens, UniProt P08311); assay: Enzymatic assay, cathepsin G
T2 sequence (P08311 21-244): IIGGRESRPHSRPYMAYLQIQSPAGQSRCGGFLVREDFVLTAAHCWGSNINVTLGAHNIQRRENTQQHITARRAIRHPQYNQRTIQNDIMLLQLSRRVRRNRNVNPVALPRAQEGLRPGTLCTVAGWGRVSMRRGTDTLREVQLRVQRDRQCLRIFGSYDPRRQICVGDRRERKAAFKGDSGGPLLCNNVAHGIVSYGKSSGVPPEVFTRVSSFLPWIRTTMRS

[6] = target: Chymotrypsin, from human pancreas (Homo sapiens, UniProt P17538); assay: Enzymatic assay, chymotrypsin; conditions: at 100 μM
[7] = target: Trypsin, from human pancreas (Homo sapiens, UniProt P07477); assay: Enzymatic assay, trypsin; conditions: at 100 μM
[8] = target: Thrombin, from Human Plasma (Homo sapiens, UniProt P00734); assay: Enzymatic assay, thrombin
[9] = target: T3, Elastase from human neutrophils (Homo sapiens, UniProt P08246); assay: Enzymatic assay, elastase
T3 sequence (P08246 30-267): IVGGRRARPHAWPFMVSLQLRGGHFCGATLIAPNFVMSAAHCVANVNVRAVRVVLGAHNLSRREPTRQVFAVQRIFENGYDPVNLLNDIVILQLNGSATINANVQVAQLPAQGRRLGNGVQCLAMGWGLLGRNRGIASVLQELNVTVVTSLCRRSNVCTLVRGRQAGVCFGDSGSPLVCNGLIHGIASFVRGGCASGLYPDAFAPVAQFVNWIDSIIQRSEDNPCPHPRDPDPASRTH

Chain of Chymotrypsin, from human pancreas (P17538 19-263): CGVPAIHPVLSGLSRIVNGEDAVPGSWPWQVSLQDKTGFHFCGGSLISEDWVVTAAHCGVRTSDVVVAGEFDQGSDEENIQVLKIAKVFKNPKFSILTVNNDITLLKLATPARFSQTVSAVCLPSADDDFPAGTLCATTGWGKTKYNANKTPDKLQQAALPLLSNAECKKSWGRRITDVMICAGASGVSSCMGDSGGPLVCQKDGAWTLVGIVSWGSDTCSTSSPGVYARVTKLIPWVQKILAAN
Chain of Coagulation Factor Xa, from uman plasma (P00742 235-488 limits assumed): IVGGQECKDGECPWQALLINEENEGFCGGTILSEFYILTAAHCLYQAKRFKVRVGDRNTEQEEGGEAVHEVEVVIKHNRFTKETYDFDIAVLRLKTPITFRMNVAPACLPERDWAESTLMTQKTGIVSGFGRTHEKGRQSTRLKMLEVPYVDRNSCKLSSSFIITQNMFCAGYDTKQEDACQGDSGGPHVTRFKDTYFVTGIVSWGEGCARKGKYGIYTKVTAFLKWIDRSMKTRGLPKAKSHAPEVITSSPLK
Chain of Coagulation Factor Xa, from uman plasma (P00742 41-179 limits assumed): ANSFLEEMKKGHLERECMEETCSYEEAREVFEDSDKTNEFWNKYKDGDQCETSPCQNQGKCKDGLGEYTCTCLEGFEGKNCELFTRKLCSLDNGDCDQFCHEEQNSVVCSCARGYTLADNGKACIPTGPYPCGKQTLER

Compound: CC[C@H](C)[C@@H]1NC(=O)[C@@H]2CCCN2C(=O)[C@@H]2CCCN2C(=O)[C@H](CC(=O)O)NC(=O)[C@H](CO)NC(=O)[C@H](CCCCN)NC(=O)[C@H]([C@@H](C)O)NC(=O)[C@@H]2CSSC[C@H](NC1=O)C(=O)N[C@@H]([C@@H](C)O)C(=O)N1CCC[C@@H]1C(=O)N1CCC[C@H]1C(=O)N[C@@H](C1CCCCC1)C(=O)N2 [Ex. 38] (HELM PEPTIDE1{[O=C([C@@H](N[*:1])C1CCCCC1)[*:2]].C.T.K.S.D.P.P.I.C.T.[dP].P}$PEPTIDE1,PEPTIDE1,2:R3-10:R3|PEPTIDE1,PEPTIDE1,1:R1-13:R2$$$V2.0)
- FXa at 100 μM % [1]: 0%
- Tryptase at 100 μM % [2]: 11%
- Cytotoxicity LC50/GI50 Hela cells (HELA cells (Acc57)): 100 µM
- Hemolysis at 100 μM % [3]: 0%
- Urokinase at 100 μM % [4]: 1%
- Chymase at 100 μM % (Chymase, from human skin): 1%
- IC50 ([5]; Cathepsin G IC50): 0.031 µM
- Chymotrypsin at 100 μM % [6]: 4%
- Trypsin at 100 μM % [7]: 96%
- Thrombin at 100 μM % [8]: 0%
- IC50 ([9]; Elastase IC50): > 100 µM

Compound: CC[C@H](C)[C@@H]1NC(=O)[C@@H]2CCCN2C(=O)[C@@H]2CCCN2C(=O)[C@H](CC(=O)O)NC(=O)[C@H](CO)NC(=O)[C@H](CCCCN)NC(=O)[C@H]([C@@H](C)O)NC(=O)[C@@H]2CSSC[C@H](NC1=O)C(=O)N[C@@H](CC(=O)O)C(=O)N1CCC[C@@H]1C(=O)N1CCC[C@H]1C(=O)N[C@@H](C1CCCCC1)C(=O)N2 [Ex. 39] (HELM PEPTIDE1{[O=C([C@@H](N[*:1])C1CCCCC1)[*:2]].C.T.K.S.D.P.P.I.C.D.[dP].P}$PEPTIDE1,PEPTIDE1,2:R3-10:R3|PEPTIDE1,PEPTIDE1,1:R1-13:R2$$$V2.0)
- FXa at 100 μM % [1]: 0%
- Tryptase at 100 μM % [2]: 34%
- Cytotoxicity LC50/GI50 Hela cells (HELA cells (Acc57)): 98 µM
- Hemolysis at 100 μM % [3]: 0%
- Urokinase at 100 μM % [4]: 2%
- Chymase at 100 μM % (Chymase, from human skin): 0%
- IC50 ([5]; Cathepsin G IC50): 0.038 µM
- Chymotrypsin at 100 μM % [6]: 7%
- Trypsin at 100 μM % [7]: 94%
- Thrombin at 100 μM % [8]: 2%
- IC50 ([9]; Elastase IC50): > 100 µM

Compound: CC[C@H](C)[C@@H]1NC(=O)[C@@H]2CCCN2C(=O)[C@@H]2CCCN2C(=O)[C@H](CC(=O)O)NC(=O)[C@H](CO)NC(=O)[C@H](CCCCN)NC(=O)[C@H]([C@@H](C)O)NC(=O)[C@@H]2CSSC[C@H](NC1=O)C(=O)N[C@@H](Cc1ccc(O)cc1)C(=O)N1CCC[C@@H]1C(=O)N1CCC[C@H]1C(=O)N[C@@H](C1CCCCC1)C(=O)N2 [Ex. 40] (HELM PEPTIDE1{[O=C([C@@H](N[*:1])C1CCCCC1)[*:2]].C.T.K.S.D.P.P.I.C.Y.[dP].P}$PEPTIDE1,PEPTIDE1,2:R3-10:R3|PEPTIDE1,PEPTIDE1,1:R1-13:R2$$$V2.0)
- FXa at 100 μM % [1]: 3%
- Tryptase at 100 μM % [2]: 33%
- Cytotoxicity LC50/GI50 Hela cells (HELA cells (Acc57)): 97 µM
- Hemolysis at 100 μM % [3]: 0.1%
- Urokinase at 100 μM % [4]: 10%
- Chymase at 100 μM % (Chymase, from human skin): 8%
- IC50 ([5]; Cathepsin G IC50): 0.025 µM
- Chymotrypsin at 100 μM % [6]: 19%
- Trypsin at 100 μM % [7]: 94%
- Thrombin at 100 μM % [8]: 1%
- IC50 ([9]; Elastase IC50): > 44.9 µM

Compound: CCCC[C@@H]1NC(=O)[C@@H]2CCCN2C(=O)[C@H]2CCCN2C(=O)[C@H](Cc2ccc(O)cc2)NC(=O)[C@@H]2CSSC[C@H](NC1=O)C(=O)N[C@@H]([C@@H](C)O)C(=O)N[C@@H](CCCCN)C(=O)N[C@@H](CO)C(=O)N[C@@H](CC(=O)O)C(=O)N1CCC[C@H]1C(=O)N1CCC[C@H]1C(=O)N[C@@H]([C@@H](C)CC)C(=O)N2 [Ex. 44] (HELM PEPTIDE1{[Nle].C.T.K.S.D.P.P.I.C.Y.[dP].P}$PEPTIDE1,PEPTIDE1,2:R3-10:R3|PEPTIDE1,PEPTIDE1,1:R1-13:R2$$$V2.0)
- FXa at 100 μM % [1]: 9%
- Tryptase at 100 μM % [2]: 50%
- Cytotoxicity LC50/GI50 Hela cells (HELA cells (Acc57)): 67 µM
- Hemolysis at 100 μM % [3]: 0.1%
- Urokinase at 100 μM % [4]: 14%
- Chymase at 100 μM % (Chymase, from human skin): 3%
- IC50 ([5]; Cathepsin G IC50): 0.031 µM
- Chymotrypsin at 100 μM % [6]: 24%
- Trypsin at 100 μM % [7]: 100%
- Thrombin at 100 μM % [8]: 9%
- IC50 ([9]; Elastase IC50): > 10 µM

Compound: CC[C@H](C)[C@@H]1NC(=O)[C@@H]2CCCN2C(=O)[C@@H]2CCCN2C(=O)[C@H](CC(=O)O)NC(=O)[C@H](CO)NC(=O)[C@H](CCCCN)NC(=O)[C@H]([C@@H](C)O)NC(=O)[C@@H]2CSSC[C@H](NC1=O)C(=O)N[C@@H](CO)C(=O)N1CCC[C@@H]1C(=O)N[C@@H](CC(=O)O)C(=O)N[C@@H](Cc1ccccc1)C(=O)N2 [Ex. 47] (HELM PEPTIDE1{F.C.T.K.S.D.P.P.I.C.S.[dP].D}$PEPTIDE1,PEPTIDE1,2:R3-10:R3|PEPTIDE1,PEPTIDE1,1:R1-13:R2$$$V2.0)
- FXa at 100 μM % [1]: 9.3%
- Tryptase at 100 μM % [2]: 0%
- Cytotoxicity LC50/GI50 Hela cells (HELA cells (Acc57)): 100 µM
- Hemolysis at 100 μM % [3]: 0%
- Urokinase at 100 μM % [4]: 6.3%
- Chymase at 100 μM % (Chymase, from human skin): 8.2%
- IC50 ([5]; Cathepsin G IC50): 0.064 µM
- Chymotrypsin at 100 μM % [6]: 1%
- Trypsin at 100 μM % [7]: 87%
- Thrombin at 100 μM % [8]: 0%
- IC50 ([9]; Elastase IC50): > 10 µM

Compound: CC[C@H](C)[C@@H]1NC(=O)[C@H](C)NC(=O)[C@@H]2CCCN2C(=O)[C@H](CC(=O)O)NC(=O)[C@H](CO)NC(=O)[C@H](CCCCN)NC(=O)[C@H]([C@@H](C)O)NC(=O)[C@@H]2CSSC[C@H](NC1=O)C(=O)N[C@@H](CCCNC(=N)N)C(=O)N1CCC[C@@H]1C(=O)N1CCC[C@H]1C(=O)N[C@@H]([C@@H](C)CC)C(=O)N2 [Ex. 52] (HELM PEPTIDE1{I.C.T.K.S.D.P.A.I.C.R.[dP].P}$PEPTIDE1,PEPTIDE1,2:R3-10:R3|PEPTIDE1,PEPTIDE1,1:R1-13:R2$$$V2.0)
- FXa at 100 μM % [1]: 6%
- Tryptase at 100 μM % [2]: 84.2%
- Cytotoxicity LC50/GI50 Hela cells (HELA cells (Acc57)): 100 µM
- Hemolysis at 100 μM % [3]: 0%
- Urokinase at 100 μM % [4]: 5.4%
- Chymase at 100 μM % (Chymase, from human skin): 42.3%
- IC50 ([5]; read-out: Cathepsin G IC50): 0.052 µM
- Chymotrypsin at 100 μM % [6]: 0%
- Trypsin at 100 μM % [7]: 86%
- Thrombin at 100 μM % [8]: 8.7%
- IC50 ([9]; read-out: Elastase IC50): > 100 µM

Compound: CCCC[C@@H]1NC(=O)[C@H]([C@@H](C)O)NC(=O)[C@@H]2CSSC[C@H](NC(=O)[C@H]([C@@H](C)CC)NC(=O)[C@@H]3CCCN3C(=O)[C@@H]3CCCN3C(=O)[C@H](CC(=O)O)NC(=O)[C@H](CO)NC1=O)C(=O)N[C@@H](Cc1ccc(O)cc1)C(=O)N1CCC[C@@H]1C(=O)N1CCC[C@H]1C(=O)N[C@@H](Cc1ccccc1)C(=O)N2 [Ex. 60] (HELM PEPTIDE1{F.C.T.[Nle].S.D.P.P.I.C.Y.[dP].P}$PEPTIDE1,PEPTIDE1,2:R3-10:R3|PEPTIDE1,PEPTIDE1,1:R1-13:R2$$$V2.0)
- FXa at 100 μM % [1]: 11%
- Tryptase at 100 μM % [2]: 29.4%
- Cytotoxicity LC50/GI50 Hela cells (HELA cells (Acc57)): 51 µM
- Hemolysis at 100 μM % [3]: 0%
- Urokinase at 100 μM % [4]: 9%
- Chymase at 100 μM % (Chymase, from human skin): 60%
- IC50 ([5]; read-out: Cathepsin G IC50): 0.038 µM
- Chymotrypsin at 100 μM % [6]: 4%
- Trypsin at 100 μM % [7]: 90%
- Thrombin at 100 μM % [8]: 0%
- IC50 ([9]; read-out: Elastase IC50): > 100 µM

Compound: CCCC[C@@H]1NC(=O)[C@@H]2CCCN2C(=O)[C@@H]2CCCN2C(=O)[C@H](CC(=O)O)NC(=O)[C@H](CO)NC(=O)[C@H](CCCCN)NC(=O)[C@H]([C@@H](C)O)NC(=O)[C@@H]2CSSC[C@H](NC1=O)C(=O)N[C@@H](Cc1ccc(O)cc1)C(=O)N1CCC[C@@H]1C(=O)N1CCC[C@H]1C(=O)N[C@@H](C1CCCCC1)C(=O)N2 [Ex. 63] (HELM PEPTIDE1{[O=C([C@@H](N[*:1])C1CCCCC1)[*:2]].C.T.K.S.D.P.P.[Nle].C.Y.[dP].P}$PEPTIDE1,PEPTIDE1,2:R3-10:R3|PEPTIDE1,PEPTIDE1,1:R1-13:R2$$$V2.0)
- FXa at 100 μM % [1]: 0%
- Tryptase at 100 μM % [2]: 50%
- Cytotoxicity LC50/GI50 Hela cells (HELA cells (Acc57)): 87 µM
- Hemolysis at 100 μM % [3]: 0%
- Urokinase at 100 μM % [4]: 0%
- Chymase at 100 μM % (Chymase, from human skin): 7%
- IC50 ([5]; Cathepsin G IC50): 0.041 µM
- Chymotrypsin at 100 μM % [6]: 11%
- Trypsin at 100 μM % [7]: 96%
- Thrombin at 100 μM % [8]: 1%
- IC50 ([9]; Elastase IC50): > 100 µM
